From patent US7259140B2, “Heparin-binding peptides and uses thereof” (Thomas Jefferson University, priority 2003, dated 2007)
Ends that are not written are not given here.

Assays:
[1] = system: anti-Factor Xa Activity of the Low Molecular Weight Heparin Lovenox ®; experiment: Anti-Factor Xa assay (Stachrom Heparin kit): neutralization of Lovenox in citrate or plasma in vitro; type: biochemical, human; details: for Lovenox ® Neutralized: Lovenox 0.7 U/ml
Experimental: The ability of peptides such as (ARKKAAKA)3VLVLVLVL (SEQ ID NO:5) to neutralize the anti-Factor Xa activity of UFH and LMWH in vitro was tested using the Stachrom Heparin kit (Diagnostica Stago), a standard hematology laboratory assay used to measure the anti-Factor Xa activity of heparin. The assay was performed using the low molecular weight heparin enoxaparin sodium (Lovenox®, Aventis Pharmaceuticals, Inc.), unfractionated heparin (UFH), or the non-heparin glycosaminoglycan danaparoid sodium (Orgaran®, Organon Inc., West Orange, N.J.) in 0.32% citrate or in plasma anticoagulated with 0.32% citrate. Enoxaparin is commonly used clinically as a low molecular weight heparin (LMWH). Danaparoid is commonly used clinically as a non-heparin glycosaminoglycan anticoagulant. Currently, the only FDA approved drug to target UFH is protamine, which is not effective in vivo against LMWH or a non-heparin glycosaminoglycan such as danaparoid. Buffer and ATIII are added to form the heparin/ATIII complex, peptide is added, then Factor Xa, reporter dye substrate for Factor Xa activity, and stop solution, and the dye concentration is read at 405 nm. The absorbance of the dye increases with increasing Factor Xa activity, and thus is inversely proportional to the heparin (anti-Factor Xa activity) concentration. Peptides were tested in plasma obtained from three volunteers (A, B, and C). Platelet function inhibitors PG12 and theophylline were added to the blood immediately upon collection.
Results. […] (ARKKAAKA)3VLVLVLVL (SEQ ID NO:5) and VLVL(ARKKAAKA)3ARKKCAKA (SEQ ID NO:38) were able to neutralize about 0.4 U/ml anti-Factor Xa activity of LMWH at a concentration of 12 μg/ml, which would be an effective dose for patients. (AKKARA)6 (SEQ ID […]), (ARKKAAKA)4 (SEQ ID NO:31) and (ARKKAAKA)3ARKKCAKA […] 0.3-0.35 U/ml. In contrast, 12 μg protamine only neutralized about 0.25 U/ml of LMWH under these conditions.

[2] = system: Lovenox ® Activity in Blood from Patients Treated with Lovenox ®; experiment: Neutralizing Lovenox activity in blood from patients treated with Lovenox (anti-Factor Xa assay); type: biochemical, human; details: for Lovenox ® Neutralized: Peptide 12 μg/ml
Experimental: Blood was obtained from volunteers who were being treated with Lovenox® for their medical conditions after obtaining signatures on informed consent forms as approved by the Institutional Review Board. The assays to test neutralization of Lovendx® were performed as described for Table 2. A dose response from 1-60 μg/ml was evaluated as in Table 2.
The dose response pattern for the effective peptides was similar to the dose response in control plasma to which Lovenox® had been added. Each data point represents the mean and standard deviation of triplicate analyses on the same sample of blood from each patient.

[3] = Affinity coelectrophoresis (ACE) of peptide binding to radiolabeled low Mr heparin; design: species or system pig; details: pH 7.0, mean and standard deviation of four assays, read-out: Kd (nM), affinity for low molecular weight heparin
Excerpt: Preparation of Radiolabeled Heparin. Whole heparin from pig intestinal mucosa (Sigma) was tyramine end-labeled and radiolabeled with Na^125I (Amersham, Pharmacia Biotech, Inc., Piscataway, N.J.) to an average specific activity≅1.0×10^7 CPM/μg as described (San Antonio, J. D., et al., Biochemistry, 32:4746-4755, 1993). Radiolabeled heparin was fractionated on Sephadex G-100 (Bio-Rad Laboratories, Hercules, Calif.) and the final≅12% of material to elute was retained as the low Mr material of ≦6,000 (Jordan, R., D. Beeler, and R. Rosenberg, J. Biol. Chem., 254:2902-2913, 1979; Laurent, T. C., et al., Biochem. J., 175:691-701, 1978).
Analysis of Peptide-Heparin Interactions by Affinity Coelectrophoresis (ACE). ACE was used to study interactions between peptides and low molecular weight (low Mr) heparin (WO00/45831). In ACE, trace concentrations of radiolabeled heparin are electrophoresed through agarose lanes containing peptides at various concentrations. These analyses are used to determine the dissociation constants (Kd's). The electrophoretic patterns of radiolabeled heparin are then visualized using a phosphorimager, and the dissociation constant (Kd) corresponds to the protein concentration at which the heparin is half shifted from being fully mobile at very low protein concentrations to maximally retarded at saturating protein concentrations. The lower the Kd value, the higher the affinity.
Binding of radiolabeled heparin to peptides was studied by ACE as detailed elsewhere (San Antonio, J. D., et al., Biochemistry, 32:4746-4755, 1993). […] Briefly, peptides were dissolved in 1×ACE running buffer, 50 mM sodium 3-(N-morpholino)-2-hydroxypropanesulfonate (MOPSO, Sigma)/125 mM sodium acetate, pH 7.0, and serially diluted in running buffer at 2× concentrations. Peptides were then mixed 1:1 with 2% agarose/1% CHAPS, 3-[(3-cholamidopropyl)dimethylammonio]-1-propanesulfonate, (Boehringer Mannheim, Indianapolis, Ind.), and loaded into wells of a 1% agarose gel. Radiolabeled heparin was then loaded in a slot on the anode side of the gel, and electrophoresed through the peptide-containing wells, towards the cathode. Gels were dried and PG mobility was measured with a Phosphorimager (Molecular Dynamics, Sunnyvale, Calif.) by scanning each protein lane and determining the relative radioactivity content per 88-μm pixel through the length of the lane. Retardation coefficient (R) measurements, binding isotherm curve fittings, and apparent Kd value determinations were calculated as detailed previously (Lee, M. K., and A. D. Lander, Proc. Natl. Acad. Sci. USA, 88:2768-2772, 1991; San Antonio, J. D., et al, Biochemistry, 32:4746-4755, 1993).
Retardation coefficients (R) for the migration of low Mr 1^25I-tyramine-heparin through peptides were determined from ACE gel electrophoretograms, and are plotted against peptide concentration. Smooth curves represent non-linear least-squares fits to the equation R=R∞/{1+(Kd/[peptide])^n}.

Sequence: ARKKAAKAARKKAAKAARKKAAKAVLVLVLVL [(ARKKAAKA)3VLVLVLVL]
- rank as neutralizing agent of Lovenox [1]: most effective neutralizing agents
- Lovenox ® Neutralized ([1]; 1 μg/ml Peptide, A Plasma): 0.055 ± 0.041 U/ml
- Lovenox ® Neutralized ([1]; 1 μg/ml Peptide, B Plasma): 0.035 ± 0.009 U/ml
- Lovenox ® Neutralized ([1]; 1 μg/ml Peptide, C Plasma): 0.058 ± 0.054 U/ml
- Lovenox ® Neutralized ([1]; 1 μg/ml Peptide, Citrate): 0.082 ± 0.027 U/ml
- Lovenox ® Neutralized ([1]; 6 μg/ml Peptide, A Plasma): 0.292 ± 0.047 U/ml
- Lovenox ® Neutralized ([1]; 6 μg/ml Peptide, B Plasma): 0.189 ± 0.066 U/ml
- Lovenox ® Neutralized ([1]; 6 μg/ml Peptide, C Plasma): 0.202 ± 0.042 U/ml
- Lovenox ® Neutralized ([1]; 6 μg/ml Peptide, Citrate): 0.288 ± 0.045 U/ml
- Lovenox ® Neutralized ([1]; 12 μg/ml Peptide, A Plasma): 0.441 ± 0.058 U/ml
- Lovenox ® Neutralized ([1]; 12 μg/ml Peptide, B Plasma): 0.376 ± 0.001 U/ml
- Lovenox ® Neutralized ([1]; 12 μg/ml Peptide, C Plasma): 0.371 ± 0.031 U/ml
- Lovenox ® Neutralized ([1]; 12 μg/ml Peptide, Citrate): 0.412 ± 0.035 U/ml
- anti-Factor Xa activity of LMWH neutralized ([1]; 12 μg/ml, plasma): about 0.4 U/ml
- Lovenox ® Neutralized ([1]; 60 μg/ml Peptide, A Plasma): 0.588 ± 0.027 U/ml
- Lovenox ® Neutralized ([1]; 60 μg/ml Peptide, B Plasma): 0.561 ± 0.035 U/ml
- Lovenox ® Neutralized ([1]; 60 μg/ml Peptide, C Plasma): 0.532 ± 0.023 U/ml
- Lovenox ® Neutralized ([1]; 60 μg/ml Peptide, Citrate): 0.441 ± 0.010 U/ml
- Lovenox ® Neutralized ([1]; 120 μg/ml Peptide, A Plasma): 0.575 ± 0.057 U/ml
- Lovenox ® Neutralized ([1]; 120 μg/ml Peptide, B Plasma): 0.480 ± 0.035 U/ml
- Lovenox ® Neutralized ([1]; 120 μg/ml Peptide, C Plasma): 0.485 ± 0.022 U/ml
- Lovenox ® Neutralized ([1]; 120 μg/ml Peptide, Citrate): 0.463 ± 0.029 U/ml
- anti-LMWH effect in citrate compared with plasma ([1]; Table 2A): neutralize the same amount of Lovenox® in citrate and plasma
- Lovenox/LMWH neutralization compared with protamine ([1]; low concentrations, in the presence of plasma): more effective than protamine
- effectiveness in neutralizing Lovenox in blood of patients [2]: most consistently effective
- Lovenox ® Neutralized ([2]; blood of Lovenox-treated Patient Number 1): 0.213 U/ml
- Lovenox ® Neutralized ([2]; blood of Lovenox-treated Patient Number 2): 0.252 U/ml
- Lovenox ® Neutralized ([2]; blood of Lovenox-treated Patient Number 3): 0.302 U/ml
- Lovenox ® Neutralized ([2]; blood of Lovenox-treated Patient Number 4): 0.439 U/ml
- Lovenox ® Neutralized ([2]; blood of Lovenox-treated Patient Number 5): 0.265 U/ml
- Lovenox ® Neutralized ([2]; blood of Lovenox-treated Patient Number 8): 0.268 U/ml
- Lovenox ® Neutralized ([2]; blood of Lovenox-treated Patient Number 9): 0.478 U/ml
- Lovenox ® Neutralized ([2]; blood of Lovenox-treated Patient Number 10): 0.436 U/ml
- Lovenox ® Neutralized ([2]; blood of Lovenox-treated Patient Number 11): 0.398 U/ml
- Kd [3]: 57 ± 23 nM
